Reference: ChEMBL document CHEMBL1151757, “Synthesis, radiosynthesis, and biological evaluation of fluorine-18-labeled 2beta-carbo(fluoroalkoxy)-3beta-(3'-((Z)-2-haloethenyl)phenyl)nortropanes: candidate radioligands for in vivo imaging of the serotonin transporter with positron emission tomography” (J Med Chem, 2008)

Key:
Caudate [1] = test: Drug uptake in anesthetized cynomolgus monkey brain caudate after 27.5 mins postinjection; format: ADME, organism-based, Macaca fascicularis, Caudate nucleus; settings: in vivo
Pons [2] = test: Drug uptake in anesthetized cynomolgus monkey brain pons after 105 mins postinjection; format: ADME, organism-based, Macaca fascicularis; settings: in vivo, 1.75 h
Putamen [3] = test: Drug uptake in anesthetized cynomolgus monkey brain putamen after 22.5 mins postinjection; format: ADME, organism-based, Macaca fascicularis; parameters: unit not given here; settings: in vivo, 0.375 h
Thalamus [4] = test: Drug uptake in anesthetized cynomolgus monkey brain thalamus after 45 mins postinjection; format: ADME, organism-based, Macaca fascicularis; parameters: unit not given here; settings: in vivo, 0.75 h
[5] = Ratio of drug uptake in caudate to cerebellum in anesthetized cynomolgus monkey after 155 mins postinjection; format: ADME, organism-based, Macaca fascicularis; settings: in vivo
[6] = Drug uptake in anesthetized cynomolgus monkey brain cerebellum after 1.5 mins postinjection; format: ADME, organism-based, Macaca fascicularis; settings: in vivo, 0.025 h
[7] = Ratio of drug uptake in frontal lobe to cerebellum in anesthetized cynomolgus monkey after 135 mins postinjection; format: ADME, organism-based, Macaca fascicularis; settings: in vivo, 2.25 h
[8] = Ratio of drug uptake in occipital lobe to cerebellum in anesthetized cynomolgus monkey after 175 mins postinjection; format: ADME, organism-based, Macaca fascicularis; settings: in vivo
[9] = Drug uptake in anesthetized cynomolgus monkey brain occipital lobe after 35 mins postinjection; format: ADME, organism-based, Macaca fascicularis; settings: in vivo
Pons [10] = test: Drug uptake in anesthetized cynomolgus monkey brain pons after 2.5 mins postinjection; format: ADME, organism-based, Macaca fascicularis; settings: in vivo
[11] = Ratio of drug uptake in thalamus to cerebellum in anesthetized cynomolgus monkey after 135 mins postinjection; format: ADME, organism-based, Macaca fascicularis; settings: in vivo, 2.25 h
Caudate [12] = test: Drug uptake in anesthetized cynomolgus monkey brain caudate after 235 mins postinjection; format: ADME, organism-based, Macaca fascicularis, Caudate nucleus; settings: in vivo
Pons [13] = test: Drug uptake in anesthetized cynomolgus monkey brain pons after 9.5 mins postinjection; format: ADME, organism-based, Macaca fascicularis; settings: in vivo
Pons [14] = test: Drug uptake in anesthetized cynomolgus monkey brain pons after 4.5 mins postinjection; format: ADME, organism-based, Macaca fascicularis; settings: in vivo, 0.075 h
[15] = Drug uptake in anesthetized cynomolgus monkey brain frontal lobe after 55 mins postinjection; format: ADME, organism-based, Macaca fascicularis; settings: in vivo
[16] = Drug uptake in anesthetized cynomolgus monkey brain frontal lobe after 235 mins postinjection; format: ADME, organism-based, Macaca fascicularis; settings: in vivo
Pons [17] = test: Drug uptake in anesthetized cynomolgus monkey brain pons after 235 mins postinjection; format: ADME, organism-based, Macaca fascicularis; settings: in vivo
Pons [18] = test: Drug uptake in anesthetized cynomolgus monkey brain pons after 115 mins postinjection; format: ADME, organism-based, Macaca fascicularis; settings: in vivo
[19] = Drug uptake in anesthetized cynomolgus monkey brain occipital lobe after 65 mins postinjection; format: ADME, organism-based, Macaca fascicularis; settings: in vivo
[20] = Ratio of drug uptake in pons to cerebellum in anesthetized cynomolgus monkey after 0.5 mins postinjection; format: ADME, organism-based, Macaca fascicularis; settings: in vivo
Thalamus [21] = test: Drug uptake in anesthetized cynomolgus monkey brain thalamus after 135 mins postinjection; format: ADME, organism-based, Macaca fascicularis; parameters: unit not given here; settings: in vivo, 2.25 h
Medulla [22] = test: Drug uptake in anesthetized cynomolgus monkey brain medulla after 3.5 mins postinjection; format: ADME, organism-based, Macaca fascicularis; settings: in vivo
Pons [23] = test: Drug uptake in anesthetized cynomolgus monkey brain pons after 22.5 mins postinjection; format: ADME, organism-based, Macaca fascicularis; settings: in vivo, 0.375 h
Thalamus [24] = test: Drug uptake in anesthetized cynomolgus monkey brain thalamus after 195 mins postinjection; format: ADME, organism-based, Macaca fascicularis; settings: in vivo, 3.25 h
[25] = Ratio of drug uptake in pons to cerebellum in anesthetized cynomolgus monkey after 18.5 mins postinjection; format: ADME, organism-based, Macaca fascicularis; settings: in vivo
Medulla [26] = test: Drug uptake in anesthetized cynomolgus monkey brain medulla after 185 mins postinjection; format: ADME, organism-based, Macaca fascicularis; settings: in vivo
Putamen [27] = test: Drug uptake in anesthetized cynomolgus monkey brain putamen after 35 mins postinjection; format: ADME, organism-based, Macaca fascicularis; parameters: unit not given here; settings: in vivo
Caudate [28] = test: Drug uptake in anesthetized cynomolgus monkey brain caudate after 205 mins postinjection; format: ADME, organism-based, Macaca fascicularis, Caudate nucleus; settings: in vivo
Medulla [29] = test: Drug uptake in anesthetized cynomolgus monkey brain medulla after 105 mins postinjection; format: ADME, organism-based, Macaca fascicularis; settings: in vivo, 1.75 h
Pons [30] = test: Drug uptake in anesthetized cynomolgus monkey brain pons after 95 mins postinjection; format: ADME, organism-based, Macaca fascicularis; settings: in vivo
[31] = Drug uptake in anesthetized cynomolgus monkey brain occipital lobe after 115 mins postinjection; format: ADME, organism-based, Macaca fascicularis; settings: in vivo
Pons [32] = test: Drug uptake in anesthetized cynomolgus monkey brain pons after 225 mins postinjection; format: ADME, organism-based, Macaca fascicularis; settings: in vivo, 3.75 h
[33] = Drug uptake in anesthetized cynomolgus monkey brain cerebellum after 27.5 mins postinjection; format: ADME, organism-based, Macaca fascicularis; settings: in vivo
Medulla [34] = test: Drug uptake in anesthetized cynomolgus monkey brain medulla after 195 mins postinjection; format: ADME, organism-based, Macaca fascicularis; settings: in vivo, 3.25 h
Medulla [35] = test: Drug uptake in anesthetized cynomolgus monkey brain medulla after 55 mins postinjection; format: ADME, organism-based, Macaca fascicularis; settings: in vivo
Putamen [36] = test: Drug uptake in anesthetized cynomolgus monkey brain putamen after 3.5 mins postinjection; format: ADME, organism-based, Macaca fascicularis; settings: in vivo
[37] = Ratio of drug uptake in pons to cerebellum in anesthetized cynomolgus monkey after 215 mins postinjection; format: ADME, organism-based, Macaca fascicularis; settings: in vivo
[38] = Drug uptake in anesthetized cynomolgus monkey brain cerebellum after 18.5 mins postinjection; format: ADME, organism-based, Macaca fascicularis; settings: in vivo
[39] = Drug uptake in anesthetized cynomolgus monkey brain occipital lobe after 22.5 mins postinjection; format: ADME, organism-based, Macaca fascicularis; settings: in vivo, 0.375 h
Thalamus [40] = test: Drug uptake in anesthetized cynomolgus monkey brain thalamus after 9.5 mins postinjection; format: ADME, organism-based, Macaca fascicularis; parameters: unit not given here; settings: in vivo
[41] = Drug uptake in anesthetized cynomolgus monkey brain frontal lobe after 105 mins postinjection; format: ADME, organism-based, Macaca fascicularis; settings: in vivo, 1.75 h
[42] = Drug uptake in anesthetized cynomolgus monkey brain frontal lobe after 15.5 mins postinjection; format: ADME, organism-based, Macaca fascicularis; settings: in vivo
Pons [43] = test: Drug uptake in anesthetized cynomolgus monkey brain pons after 6.5 mins postinjection; format: ADME, organism-based, Macaca fascicularis; settings: in vivo
[44] = Ratio of drug uptake in thalamus to cerebellum in anesthetized cynomolgus monkey after 195 mins postinjection; format: ADME, organism-based, Macaca fascicularis; settings: in vivo, 3.25 h
Thalamus [45] = test: Drug uptake in anesthetized cynomolgus monkey brain thalamus after 27.5 mins postinjection; format: ADME, organism-based, Macaca fascicularis; parameters: unit not given here; settings: in vivo
Pons [46] = test: Drug uptake in anesthetized cynomolgus monkey brain pons after 165 mins postinjection; format: ADME, organism-based, Macaca fascicularis; settings: in vivo, 2.75 h
[47] = Drug uptake in anesthetized cynomolgus monkey brain occipital lobe after 165 mins postinjection; format: ADME, organism-based, Macaca fascicularis; settings: in vivo, 2.75 h
[48] = Ratio of drug uptake in caudate to cerebellum in anesthetized cynomolgus monkey after 9.5 mins postinjection; format: ADME, organism-based, Macaca fascicularis; settings: in vivo
[49] = Drug uptake in anesthetized cynomolgus monkey brain occipital lobe after 1.5 mins postinjection; format: ADME, organism-based, Macaca fascicularis; settings: in vivo, 0.025 h
Caudate [50] = test: Drug uptake in anesthetized cynomolgus monkey brain caudate after 165 mins postinjection; format: ADME, organism-based, Macaca fascicularis, Caudate nucleus; settings: in vivo, 2.75 h
Pons [51] = test: Drug uptake in anesthetized cynomolgus monkey brain pons after 1.5 mins postinjection; format: ADME, organism-based, Macaca fascicularis; settings: in vivo, 0.025 h
Medulla [52] = test: Drug uptake in anesthetized cynomolgus monkey brain medulla after 65 mins postinjection; format: ADME, organism-based, Macaca fascicularis; settings: in vivo
Thalamus [53] = test: Drug uptake in anesthetized cynomolgus monkey brain thalamus after 65 mins postinjection; format: ADME, organism-based, Macaca fascicularis; parameters: unit not given here; settings: in vivo
[54] = Drug uptake in anesthetized cynomolgus monkey brain cerebellum after 6.5 mins postinjection; format: ADME, organism-based, Macaca fascicularis; settings: in vivo
[55] = Drug uptake in anesthetized cynomolgus monkey brain occipital lobe after 145 mins postinjection; format: ADME, organism-based, Macaca fascicularis; settings: in vivo
[56] = Ratio of drug uptake in midbrain to cerebellum in anesthetized cynomolgus monkey after 95 mins postinjection; format: ADME, organism-based, Macaca fascicularis; settings: in vivo
Putamen [57] = test: Drug uptake in anesthetized cynomolgus monkey brain putamen after 45 mins postinjection; format: ADME, organism-based, Macaca fascicularis; parameters: unit not given here; settings: in vivo, 0.75 h
[58] = Ratio of drug uptake in midbrain to cerebellum in anesthetized cynomolgus monkey after 125 mins postinjection; format: ADME, organism-based, Macaca fascicularis; settings: in vivo
Putamen [59] = test: Drug uptake in anesthetized cynomolgus monkey brain putamen after 135 mins postinjection; format: ADME, organism-based, Macaca fascicularis; settings: in vivo, 2.25 h
Thalamus [60] = test: Drug uptake in anesthetized cynomolgus monkey brain thalamus after 225 mins postinjection; format: ADME, organism-based, Macaca fascicularis; parameters: unit not given here; settings: in vivo, 3.75 h
Medulla [61] = test: Drug uptake in anesthetized cynomolgus monkey brain medulla after 75 mins postinjection; format: ADME, organism-based, Macaca fascicularis; settings: in vivo, 1.25 h
Midbrain = test: Drug uptake in anesthetized cynomolgus monkey brain midbrain after 1.5 mins postinjection; format: ADME, organism-based, Macaca fascicularis; parameters: unit not given here; settings: in vivo, 0.025 h
[62] = Drug uptake in anesthetized cynomolgus monkey brain occipital lobe after 27.5 mins postinjection; format: ADME, organism-based, Macaca fascicularis; settings: in vivo
Thalamus [63] = test: Drug uptake in anesthetized cynomolgus monkey brain thalamus after 3.5 mins postinjection; format: ADME, organism-based, Macaca fascicularis; parameters: unit not given here; settings: in vivo
Putamen [64] = test: Drug uptake in anesthetized cynomolgus monkey brain putamen after 9.5 mins postinjection; format: ADME, organism-based, Macaca fascicularis; parameters: unit not given here; settings: in vivo
[65] = Ratio of drug uptake in putamen to cerebellum in anesthetized cynomolgus monkey after 35 mins postinjection; format: ADME, organism-based, Macaca fascicularis; settings: in vivo
Thalamus [66] = test: Drug uptake in anesthetized cynomolgus monkey brain thalamus after 155 mins postinjection; format: ADME, organism-based, Macaca fascicularis; parameters: unit not given here; settings: in vivo
[67] = Ratio of drug uptake in midbrain to cerebellum in anesthetized cynomolgus monkey after 85 mins postinjection; format: ADME, organism-based, Macaca fascicularis; settings: in vivo

Structure (SMILES): O=C(OCC[18F])C1C2CCC(CC1c1cccc(/C=C\Br)c1)N2 (stereo not drawn)
- Drug uptake (Caudate [1]): 3.3
- Drug uptake (Pons [2]): 4.34
- Drug uptake (Putamen [3]): 4.33
- Drug uptake (Thalamus [4]): 4.15
- Ratio [5]: 1.6
- Drug uptake [6]: 0.06
- Ratio [7]: 1.1
- Ratio [8]: 1.2
- Drug uptake [9]: 3.43
- Drug uptake (Pons [10]): 0.42
- Ratio [11]: 1.7
- Drug uptake (Caudate [12]): 2.53
- Drug uptake (Pons [13]): 3.15
- Drug uptake (Pons [14]): 1.78
- Drug uptake [15]: 2.8
- Drug uptake [16]: 1.87
- Drug uptake (Pons [17]): 3.08
- Drug uptake (Pons [18]): 4.51
- Drug uptake [19]: 3.45
- Ratio [20]: 3.8
- Drug uptake (Thalamus [21]): 4.03
- Drug uptake (Medulla [22]): 1.26
- Drug uptake (Pons [23]): 3.81
- Drug uptake (Thalamus [24]): 3.18
- Ratio [25]: 1.1
- Drug uptake (Medulla [26]): 3.61
- Drug uptake (Putamen [27]): 4.8
- Drug uptake (Caudate [28]): 2.92
- Drug uptake (Medulla [29]): 4.31
- Drug uptake (Pons [30]): 4.36
- Drug uptake [31]: 3.02
- Drug uptake (Pons [32]): 2.77
- Drug uptake [33]: 3.8
- Drug uptake (Medulla [34]): 3.34
- Drug uptake (Medulla [35]): 4.82
- Drug uptake (Putamen [36]): 1
- Ratio [37]: 1.8
- Drug uptake [38]: 3.59
- Drug uptake [39]: 3.14
- Drug uptake (Thalamus [40]): 2.83
- Drug uptake [41]: 2.69
- Drug uptake [42]: 2.38
- Drug uptake (Pons [43]): 2.79
- Ratio [44]: 1.8
- Drug uptake (Thalamus [45]): 3.94
- Drug uptake (Pons [46]): 3.9
- Drug uptake [47]: 2.5
- Ratio [48]: 0.7
- Drug uptake [49]: 0.06
- Drug uptake (Caudate [50]): 3.44
- Drug uptake (Pons [51]): 0.09
- Drug uptake (Medulla [52]): 4.81
- Drug uptake (Thalamus [53]): 4.51
- Drug uptake [54]: 2.75
- Drug uptake [55]: 2.74
- Ratio [56]: 1.6
- Drug uptake (Putamen [57]): 4.94
- Ratio [58]: 1.8
- Drug uptake (Putamen [59]): 4.4
- Drug uptake (Thalamus [60]): 2.95
- Drug uptake (Medulla [61]): 4.73
- Drug uptake (Midbrain): 0.08
- Drug uptake [62]: 3.28
- Drug uptake (Thalamus [63]): 0.67
- Drug uptake (Putamen [64]): 3.59
- Ratio [65]: 1.3
- Drug uptake (Thalamus [66]): 3.64
- Ratio [67]: 1.5
